Measurements as given in PMC10671648, “Nucleation of α-Synuclein Amyloid Fibrils Induced by Cross-Interaction with β-Hairpin Peptides Derived from Immunoglobulin Light Chains” (International Journal of Molecular Sciences, 2023).

Legend:
β-wrapin AS10 = details: cited from earlier work
αSyn(61–140) = assay: ThT aggregation assay of αSyn(61–140) under quiescent conditions; type: biochemical; details: concentrations up to 50 µM
Description: Figure 5 Modulation of aggregation of truncated αSyn variants by SMAhp (left) and LENhp (right) in ThT assay under quiescent conditions. Buffer, 30 mM Tris-HCl, pH 7.4, with indicated salt concentration. ThT time course and AFM images of (A,C) 25 µM αSyn(1–95) or (B,D) 25 µM αSyn(61–140) in the absence (gray) and presence of SMAhp (A,B) or LENhp (C,D). Frames around the AFM images correspond to the frames in the kinetics diagrams for indication of the sample; the same color coding for SMAhp and LENhp concentrations as in the kinetic diagrams was used for the AFM image frames.
αSyn(1–95) and αSyn(61–140) were expressed from codon-optimized gene sequences in the pT7–7 vector in Escherichia coli BL21DE3, without N-terminal acetylation. Expression and purification were performed as for full-length αSyn, with the difference that, for αSyn(1–95), the anion exchange chromatography step was replaced by cation exchange chromatography using a 5 mL HiTrap SP FF column (Cytiva, Marlborough, MA, USA) and 10 mM sodium acetate buffer, pH 5, with elution in a NaCl gradient from 0 to 500 mM.
Aggregation kinetics were monitored in Greiner 96-well half-area, clear bottom, low-binding plates via ThT fluorescence in a BMG CLARIOstar plate reader. […] Plates were covered with sealing tape, placed in the plate reader, heated to 37 °C, and ThT fluorescence was read using bottom optics.

Net charge at neutral pH = type: physicochemical
αSyn = αSyn (Homo sapiens, UniProt P37840); details: agitation conditions; ref [62]; cited from earlier work

Row | Compound | NMR pattern with AS10 (glycine region and downfield amide resonances) (β-wrapin AS10; 1H-15N HSQC NMR of 15N-AS10, ref [57]) | Kd (β-wrapin AS10; read-out: KD for AS10, ref [57]) [nM] | affinity for AS10 (β-wrapin AS10; ref [56,57,58]) | effect of spermine on ThT fluorescence of αSyn(61–140) (αSyn(61–140)) | net charge at neutral pH (Net charge at neutral pH) | effect on αSyn fibril formation under agitation (αSyn)
1 | IAPP: islet amyloid polypeptide, disease-related amyloid protein (KCNTATCATQRLANFLVHSSNNFGAILSSTNVGSNTY; Islet amyloid polypeptide; UniProt P10997 34-70, looked up) | The same pattern has been observed before | 910 | sub-micromolar affinity | – | – | –
2 | NCCCNCCCCNCCCN [spermine] | – | – | – | did not lead to any increase in ThT fluorescence | +4 | promote αSyn fibril formation
